Measured values taken from patent publication US12622918B2, “Formulations and dosages for administering a compound that inhibits MCL1 protein” (Amgen Inc., priority 2019, dated 2026).

What was measured:
Monkey MCL1 = Monkey MCL1 (Macaca fascicularis, UniProt A0A2K5W0Y7); experiment: Cell-free TR-FRET BIM-binding assay, Monkey MCL1; conditions: read-out: IC50 (Mean ± SD) of AMG 176 With Respect to Binding; BIM-binding partner Monkey MCL1; n = 3
Mouse MCL1 = Mouse MCL1 (Mus musculus, UniProt P97287); experiment: Cell-free TR-FRET BIM-binding assay, Mouse MCL1; conditions: BIM-binding partner Mouse MCL1; n = 3
KMS-28-BM = experiment: Cell viability (CellTiterGlo), KMS-28-BM; assay type: cell-based; conditions: Multiple myeloma, 24 hours, 10% FBS, read-out: AMS 176 IC50
Namalwa = experiment: Cell viability (CellTiterGlo), Namalwa; assay type: cell-based; conditions: NHL, 24 hours, 10% FBS, read-out: AMS 176 IC50
KMM1 = experiment: Cell viability (CellTiterGlo), KMM1; assay type: cell-based; conditions: KMM-1; KMM1, Multiple myeloma; 24 hours; 10% FBS; read-out: AMS 176 IC50
MM1S = experiment: Cell viability (CellTiterGlo), MM1S; assay type: cell-based; conditions: Homo sapiens, MM1.S, Multiple myeloma, 24 hours, 10% FBS, read-out: AMS 176 IC50
KMS34 = experiment: Cell viability (CellTiterGlo), KMS34; assay type: cell-based; conditions: KMS-34; KMS34, Multiple myeloma; 24 hours; 10% FBS; read-out: AMS 176 IC50
KMS-28-PE = experiment: Cell viability (CellTiterGlo), KMS-28-PE; assay type: cell-based; conditions: Multiple myeloma, 24 hours, 10% FBS, read-out: AMS 176 IC50
Pfeiffer = experiment: Cell viability (CellTiterGlo), Pfeiffer; assay type: cell-based; conditions: Homo sapiens, NHL, 24 hours, 10% FBS, read-out: AMS 176 IC50
RL = experiment: Cell viability (CellTiterGlo), RL; assay type: cell-based; conditions: Homo sapiens, NHL, 24 hours, 10% FBS, high dose 20 μM, read-out: AMS 176 IC50
[1] = system: OPM2-Luc tumor xenografts; experiment: OPM2-Luc xenograft efficacy, once daily dosing; assay type: in vivo, mice; conditions: for animals tumor free: day 24
Method: OPM2-Luc cells (5×10^6) were implanted subcutaneously into female athymic nude mice. […] Three of 10 animals in the 30 mg/kg group and 10 of 10 animals in the 60 mg/kg group were tumor free on day 24.

[2] = system: OPM2-Luc tumor xenografts; experiment: OPM2-Luc xenograft efficacy, intermittent dosing; assay type: in vivo; conditions: for animals tumor free: day 26
Method: OPM2-Luc cells (5×10^6) were implanted subcutaneously into female athymic nude mice. […] With all tested doses and schedules, dose-dependent TGI was observed (FIG. 5). […] Six of 10 animals in the 60 mg/kg 5 days on/2 days off group and 10 of 10 animals in the once daily group were tumor free on day 26.

Pharmacokinetics in mice = assay type: in vivo
From the text: (§1) The pharmacokinetics (PK) of the compound of Formula I after single intravenous (IV) or oral administration were characterized in male CD1 mice, female athymic nude mice, male Nu/Nu mice, male Sprague Dawley rats, male beagle dogs, and male cynomolgus monkeys. The clearance (CL) of the compound was low in mice, rats, dogs, and monkeys relative to their hepatic blood flow. Volume of distribution at steady state (Vss) in mice, rats, dogs, and monkeys was variable across the species.

Pharmacokinetics in rats = conditions: male, Sprague Dawley, rat, in vivo, read-out: mean terminal elimination half-life (t1/2,z) (converted)
From the text: as §1

[3] = Pharmacokinetics in monkeys; conditions: male, monkey, in vivo, read-out: mean terminal elimination half-life (t1/2,z) (converted)
From the text: as §1

[4] = Distribution into blood cells; assay type: in vitro ADME
rat = experiment: 28-day GLP rat IV infusion toxicology study; assay type: in vivo
From the text: The doses selected for the 28-day IV rat and dog toxicology studies were intended to characterize the toxicity of the compound of Formula I and provide data to support a starting dose in the first-in-human (FIH) study. An IV route of administration and a dosing schedule of 2 days on/5 days off was used to support the anticipated clinical route and dosing schedule.

[5] = in vivo
[6] = system: Adult patients with relapsed or refractory AML; experiment: Dose-escalation study in relapsed or refractory AML, data cutoff May 17, 2019; assay type: in vivo
Method: Escalating doses started at 60 mg/m^2. For dose levels ≥180 mg/m^2, a lead-in dose of 120 mg/m^2 was implemented during week 1. Primary objectives included the evaluation of safety, tolerability, and pharmacokinetics. The secondary objective was a preliminary evaluation of efficacy, assessed using ELN criteria. Exploratory endpoints included pharmacodynamic evaluation of MCL-1 inhibition in circulating AML blasts.

[7] = TEAEs occurring in ≥2 patients, N = 11

Monkey MCL1, sequence (A0A2K5W0Y7 1-346): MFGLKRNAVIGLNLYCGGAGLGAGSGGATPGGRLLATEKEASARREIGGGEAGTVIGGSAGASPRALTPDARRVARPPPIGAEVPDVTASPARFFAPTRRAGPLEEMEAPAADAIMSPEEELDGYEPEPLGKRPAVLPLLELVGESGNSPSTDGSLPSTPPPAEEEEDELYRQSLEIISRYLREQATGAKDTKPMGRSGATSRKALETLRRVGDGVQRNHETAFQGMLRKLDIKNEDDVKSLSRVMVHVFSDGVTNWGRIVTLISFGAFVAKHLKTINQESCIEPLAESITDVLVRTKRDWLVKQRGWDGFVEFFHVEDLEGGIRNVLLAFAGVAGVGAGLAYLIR
Mouse MCL1, sequence (P97287 whole entry): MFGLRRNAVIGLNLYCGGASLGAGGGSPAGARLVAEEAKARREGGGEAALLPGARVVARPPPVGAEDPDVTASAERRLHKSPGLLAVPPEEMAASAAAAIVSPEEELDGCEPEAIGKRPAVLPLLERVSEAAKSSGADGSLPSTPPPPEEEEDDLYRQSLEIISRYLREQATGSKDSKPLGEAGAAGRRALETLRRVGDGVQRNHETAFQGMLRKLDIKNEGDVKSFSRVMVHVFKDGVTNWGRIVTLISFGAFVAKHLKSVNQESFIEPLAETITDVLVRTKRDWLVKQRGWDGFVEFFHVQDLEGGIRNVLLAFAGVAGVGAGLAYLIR

CO[C@H]1/C=C/C[C@H](C)[C@@H](C)S(=O)(=O)NC(=O)c2ccc3c(c2)N(C[C@@H]2CC[C@H]21)C[C@@]1(CCCc2cc(Cl)ccc21)CO3 [AMG 176]
IC50 (Monkey MCL1): 0.182 nM
IC50 (Mouse MCL1): 49.8 nM
IC50 (KMS-28-BM): 205 nM
IC50 (Namalwa): 237 nM
IC50 (KMM1): 407 nM
IC50 (MM1S): 5120 nM
IC50 (KMS34): 6050 nM
IC50 (KMS-28-PE): 12000 nM
IC50 (Pfeiffer): 18900 nM
IC50 (RL): > 20000 nM
TGI ([1]; 20 mg/kg once daily oral gavage, p<0.001): 63%
effect on established OPM2-Luc tumors ([1]; 30 mg/kg and 60 mg/kg orally once daily, summary statement): tumor regression
tumor regression ([1]; 30 mg/kg once daily oral gavage, p<0.001): 50%
animals tumor free ([1]; 30 mg/kg once daily): Three of 10
tumor regression ([1]; 60 mg/kg once daily oral gavage, p<0.0001): 100%
animals tumor free ([1]; 60 mg/kg once daily): 10 of 10
changes in body weight and body score assessment ([1]; 10-60 mg/kg once daily oral gavage): no evidence of AMG 176-related changes
TGI ([2]; 30 mg/kg 2 days on/5 days off): 54%
TGI ([2]; 30 mg/kg 5 days on/2 days off): 85%
effect on growth of established OPM2-Luc tumors ([2]; 30 mg/kg and 60 mg/kg, two days on/5 days off and 5 days on/2 days off, summary statement): significantly inhibited the growth
TGI ([2]; 30 mg/kg once daily oral gavage): 84%
tumor regression ([2]; 60 mg/kg 2 days on/5 days off): 21%
tumor regression ([2]; 60 mg/kg 5 days on/2 days off): 87%
animals tumor free ([2]; 60 mg/kg 5 days on/2 days off): Six of 10
tumor regression ([2]; 60 mg/kg once daily): 100%
animals tumor free ([2]; 60 mg/kg once daily): 10 of 10
overt toxicity by body weight and body score assessment ([2]; 30 or 60 mg/kg, all schedules): No evidence of overt toxicity
mean terminal elimination half-life (t1/2,z) (Pharmacokinetics in mice): 13.8 h
half-life (Pharmacokinetics in rats): 19.5 h
half-life [3]: 1.66 h
distribution into blood cells [4]: did not preferentially distribute into blood cells
finding related to morbidity and mortality (rat): mucosal epithelial degeneration in the small and large intestines
dose with mortality (rat; IV infusion, 28-day): 120 mg/kg
severely toxic dose in 10% of animals (STD10) (rat; IV infusion, 2 days on/5 days off, 28-day): 60 mg/kg
phototoxicity [5]: not phototoxic
plasma exposures versus dose ([6]; 60-180 mg/m^2): increased in a dose-related manner
Treatment-related AEs, patients ([6]; AML, 11 patients): 46%
fatal adverse events ([6]; AML, 11 patients): No fatal adverse events were observed
grade ≥3 TEAEs, patients ([6]; AML, 11 patients): 73%
grade ≥3 anemia ([6]; AML, 11 patients): 18%
grade ≥3 treatment-related AEs, patients ([6]; AML, 11 patients): 18%
nausea, any grade ([6]; AML, 11 patients): 36%
peripheral edema, any grade ([6]; AML, 11 patients): 36%
TEAEs of any grade, patients ([6]; AML, 11 patients, 60-180 mg/m^2 IV): 91%
Anemia, Grade ≥3 ([6]; Grade ≥3 TEAEs occurring in ≥2 patients, N = 11): 2 (18.2) n (%)
time of maximum plasma concentrations ([6]; IV infusion over a minimum of 2 hours): close to the end of intravenous infusion
All TEAEs ([6]; Patients (N = 11)): 10 (90.9) n (%)
TEAEs Fatal ([6]; Patients (N = 11)): 0 n (%)
TEAEs Grade ≥3 ([6]; Patients (N = 11)): 8 (72.7) n (%)
TEAEs Serious ([6]; Patients (N = 11)): 8 (72.7) n (%)
Anemia [6, 7]: 2 (18.2) n (%)
Hypokalemia [6, 7]: 2 (18.2) n (%)
Hypomagnesemia [6, 7]: 2 (18.2) n (%)
Increased blood bilirubin level [6, 7]: 2 (18.2) n (%)
Nausea [6, 7]: 4 (36.4) n (%)
Peripheral edema [6, 7]: 4 (36.4) n (%)
Vomiting [6, 7]: 2 (18.2) n (%)
maximum tolerated dose ([6]; at the data cutoff date): not yet reached
safety, tolerability, and pharmacokinetic profile ([6]; monotherapy, dose levels evaluated): acceptable
pharmacodynamic impact in peripheral blood AML blasts ([6]; patient achieving CRi, 3 hours postinfusion): release of the proapoptotic protein Bax and activation of effector caspase 3
